# Experimental data from the supplement of paper PMC10307832.
# Experiments:
# Experiment in all cases: relative viability (nuclei count vs DMSO), 5 days (fraction); higher = more cells survive
# [1] = compound: NC1(c2ccc(-c3nc4ccn5c(=O)[nH]nc5c4cc3-c3ccccc3)cc2)CCC1 [MK-2206] + N=C(N)NC(=N)NCCc1ccccc1 [Phenformin] (partner 250 µM)
# Method in brief: (§1)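 Lung cancer cell lines in 1536-well plates were dosed by pin tool the day after seeding, either with one drug alone or with a fixed anchor-drug dose plus five library-drug doses (not always all listed) in √10 steps. After 5 days, cells were fixed and their nuclei stained in one step (final 0.05% Triton X-100, 1% formaldehyde, 1 ug/ml Hoechst), then counted on 4× images. Relative viability is the nuclei count in treated wells divided by that in vehicle wells. Values are medians of duplicate plates.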
# [2] = compound: NC1(c2ccc(-c3nc4ccn5c(=O)[nH]nc5c4cc3-c3ccccc3)cc2)CCC1 [MK-2206] + CCNC(=O)c1noc(-c2cc(C(C)C)c(O)cc2O)c1-c1ccc(CN2CCOCC2)cc1 [Luminespib] (partner 0.01 µM)
# Method in brief: as §1
# [3] = compound: CS(=O)(=O)N1CCN(Cc2cc3nc(-c4cccc5[nH]ncc45)nc(N4CCOCC4)c3s2)CC1 [Pictilisib] + O=C(CCCCCCC(=O)Nc1ccccc1)NO [Vorinostat] (partner 1 µM)
# Method in brief: as §1
# [4] = compound: CS(=O)(=O)N1CCN(Cc2cc3nc(-c4cccc5[nH]ncc45)nc(N4CCOCC4)c3s2)CC1 [Pictilisib] + N=C(N)NC(=N)NCCc1ccccc1 [Phenformin] (partner 250 µM)
# Method in brief: as §1
# [5] = compound: NC1(c2ccc(-c3nc4ccn5c(=O)[nH]nc5c4cc3-c3ccccc3)cc2)CCC1 [MK-2206] + O=C(c1cc(Cc2n[nH]c(=O)c3ccccc23)ccc1F)N1CCN(C(=O)C2CC2)CC1 [Olaparib] (partner 8 µM)
# Method in brief: as §1
Cell Line,relative viability ([1]; first compound 0.01 µM),relative viability ([1]; first compound 0.03162 µM),relative viability ([1]; first compound 0.3162 µM),relative viability ([1]; first compound 1 µM),relative viability ([2]; first compound 0.01 µM),relative viability ([2]; first compound 0.03162 µM),relative viability ([2]; first compound 0.3162 µM),relative viability ([2]; first compound 1 µM),relative viability ([3]; first compound 0.02 µM),relative viability ([3]; first compound 0.06325 µM),relative viability ([3]; first compound 0.6325 µM),relative viability ([3]; first compound 2 µM),relative viability ([4]; first compound 0.02 µM),relative viability ([4]; first compound 0.06325 µM),relative viability ([4]; first compound 0.6325 µM),relative viability ([4]; first compound 2 µM),relative viability ([5]; first compound 0.01 µM),relative viability ([5]; first compound 0.03162 µM),relative viability ([5]; first compound 0.3162 µM),relative viability ([5]; first compound 1 µM)
NCI-H23,0.688,0.844,0.673,0.666,0.214,0.215,0.19,0.211,0.636,0.722,0.349,0.263,0.84,0.82,0.664,0.523,0.302,0.326,0.255,0.285
LOU-NH91,0.682,0.727,0.683,0.555,0.344,0.303,0.32,0.373,1.09,0.901,0.797,0.651,0.773,0.812,0.609,0.461,0.901,0.98,0.91,0.847
NCI-H2009,0.474,0.464,0.436,0.4,1.01,0.992,1.06,1.01,0.766,0.723,0.645,0.5,0.501,0.504,0.438,0.365,0.703,0.662,0.701,0.704
NCI-H358,0.338,0.352,0.328,0.412,0.0868,0.829,0.234,0.318,0.816,0.693,0.603,0.264,0.348,0.38,0.207,0.151,0.61,0.641,0.541,0.56
NCI-H2126,0.515,0.501,0.446,0.426,0.9,0.877,0.856,0.752,0.794,0.732,0.504,0.317,0.49,0.501,0.38,0.31,0.932,1.01,0.87,0.925
ChaGo-K-1,0.524,0.488,0.46,0.497,0.668,0.661,0.541,0.679,0.797,0.773,0.64,0.609,0.438,0.529,0.42,0.33,0.404,0.422,0.413,0.429
NCI-H1437,0.297,0.265,0.306,0.301,1.13,1.13,0.855,1.27,0.882,0.949,0.611,0.516,0.315,0.321,0.256,0.297,0.632,0.643,0.698,0.653
SK-LU-1,0.536,0.602,0.476,0.503,0.217,0.209,0.211,0.195,0.857,0.818,0.618,0.511,0.648,0.509,0.393,0.308,0.47,0.457,0.47,0.371
NCI-H838,0.554,0.722,0.517,0.447,0.288,0.303,0.244,0.282,0.731,0.632,0.648,0.53,0.541,0.628,0.329,0.224,0.768,0.857,0.767,0.685
NCI-H1755,0.68,0.632,0.551,0.587,0.411,0.636,0.469,0.346,0.795,0.812,0.642,0.354,0.654,0.594,0.401,0.357,0.875,0.929,0.901,0.825
NCI-H2228,0.332,0.326,0.214,0.219,0.167,0.188,0.14,0.145,0.524,0.72,0.434,0.253,0.335,0.38,0.18,0.141,0.832,0.594,0.464,0.417
NCI-H1915,0.351,0.384,0.379,0.367,0.86,0.853,0.787,0.72,0.537,0.521,0.536,0.403,0.392,0.367,0.365,0.361,0.238,0.246,0.257,0.254
NCI-H2347,0.443,0.345,0.51,0.224,0.46,0.399,0.426,0.721,0.669,0.607,0.416,0.321,0.451,0.461,0.325,0.207,0.618,0.541,0.58,0.503
HARA,0.432,0.577,0.386,0.415,0.798,1.06,0.77,0.839,0.712,0.35,0.299,0.239,0.454,0.469,0.37,0.244,0.842,0.779,0.758,0.625
NCI-H2085,0.713,0.834,0.681,0.59,0.508,0.393,0.489,0.384,0.792,0.832,0.498,0.319,0.725,0.688,0.387,0.291,0.778,0.858,0.786,0.732
NCI-H650,0.458,0.473,0.471,0.353,0.747,0.86,0.897,0.788,0.533,0.427,0.378,0.164,0.468,0.457,0.357,0.394,0.4,0.362,0.383,0.391
NCI-H727,0.607,0.71,0.533,0.592,0.328,0.306,0.337,0.345,1.04,1.29,1.11,0.867,0.564,0.529,0.554,0.38,0.696,0.674,0.716,0.675
NCI-H1993,0.496,0.491,0.562,0.568,0.44,0.827,0.671,0.565,0.713,0.639,0.494,0.436,0.527,0.504,0.626,0.573,0.941,1.05,0.99,0.652
EMC-BAC-2,0.526,0.546,0.475,0.431,1.22,1.18,1.08,1.07,0.88,0.615,0.337,0.286,0.604,0.515,0.432,0.335,0.438,0.462,0.451,0.419
NCI-H2087,0.531,0.361,0.404,0.317,0.158,0.155,0.187,0.128,0.61,1.06,0.919,0.539,0.483,0.439,0.468,0.28,0.641,0.552,0.592,0.51
NCI-H441,0.974,0.865,0.656,0.449,0.31,0.409,0.271,0.262,0.972,0.682,0.607,0.457,0.822,0.789,0.601,0.337,0.588,0.622,0.541,0.338
LXF-289,0.506,0.542,0.542,0.548,0.661,0.722,0.728,0.771,0.885,0.696,0.763,0.557,0.508,0.557,0.452,0.436,1.05,1.04,1.09,1.06
NCI-H661,0.252,0.289,0.257,0.255,0.93,0.884,0.968,0.947,0.857,0.826,0.936,0.745,0.302,0.282,0.269,0.216,0.768,0.751,0.763,0.738
PC-3 [JPC-3],0.48,0.486,0.475,0.466,0.601,0.652,0.627,0.705,0.953,0.548,0.613,0.418,0.493,0.539,0.487,0.405,1.09,1.12,1.18,1.12
NCI-H522,0.605,0.681,0.627,0.613,1.28,1.31,1.17,1.19,0.857,0.866,0.757,0.608,0.749,0.676,0.613,0.603,0.668,0.624,0.629,0.666
NCI-H1651,0.362,0.302,0.336,0.365,0.865,0.888,0.808,0.965,0.519,0.551,0.538,0.344,0.331,0.36,0.268,0.261,0.178,0.154,0.174,0.181
